ChEMBL document CHEMBL1156829 (Proc Natl Acad Sci U S A, 2008)

What was measured:
[1] = NOVARTIS: Cytotoxicity against human hepatocellular carcinoma cell line (Huh7); assay type: toxicity, cell-based, Huh-7; conditions: Huh7 cells (hepatocellular carcinoma cell line)
[2] = tested on: Plasmodium falciparum; assay: NOVARTIS: Inhibition of Plasmodium falciparum W2 (drug-resistant) proliferation in erythrocyte-based infection assay; assay type: functional, organism-based; conditions: Plasmodium falciparum, W2; read-out: EC50
[3] = tested on: Plasmodium falciparum; assay: NOVARTIS: Inhibition of Plasmodium falciparum 3D7 (drug-susceptible) proliferation in erythrocyte-based infection assay; assay type: functional, organism-based; conditions: Plasmodium falciparum, 3D7

SMILES | CC50 [1] | EC50 [2] | EC50 [3]
Cc1cc(Nc2ccc(O)cc2)nc2cccc(O)c12 | 52400 nM | 407 nM | 468 nM
CC(Nc1cc(C)ccn1)=C(C#N)C#N | > 100000 nM | 795 nM | 549 nM
CNC(=O)c1ccc(NC(=O)Nc2ccc(C3=NCCCN3)cc2)cc1NC(=O)Nc1ccc(C2=NCCCN2)cc1 | > 10000 nM | 78.3 nM | 126 nM
COc1cc(N)c(Cl)cc1C(=O)NCC1CCN(c2nc(C)cc(C)n2)CC1 | 64900 nM | 531 nM | 345 nM
Cc1cc(N2CCCCC2)nc2ccc(NC(=O)c3cccc([N+](=O)[O-])c3)cc12 | > 100000 nM | 793 nM | 440 nM
Cc1cc(Cl)ccc1OC(C)C(=O)N1CCc2ccccc21 (stereo not given) | > 100000 nM | 812 nM | 632 nM
CCN(CC)S(=O)(=O)c1ccc2[nH]cc(C(=O)NCCCN3CCN(c4ccc(OC)cc4)CC3)c(=O)c2c1 | 51600 nM | 420 nM | 2340 nM
Fc1ccc(Nc2nc(NCc3ccco3)c3ccccc3n2)cc1 | 12400 nM | 101 nM | 191 nM
CCOC(=O)c1cc(-c2ccc(OC)cc2)n(CCC(=O)NCc2ccc(OC)cc2)c1C | > 100000 nM | 781 nM | 987 nM
Nc1c(C(=O)Nc2ccc(Br)cc2)sc2nc3c(c(-c4cccs4)c12)CCC3 | > 100000 nM | 776 nM | 1040 nM
COc1ccc(-c2cc(-c3ccc(C)cc3)[nH]n2)c(O)c1 | 25600 nM | 198 nM | 1520 nM
CC(NCc1cc(-c2ccccc2)ccc1O)c1cccc2ccccc12 (stereo not given) | > 10000 nM | 77.3 nM | 1210 nM
COc1cc(NC(=O)Cn2c3ccccc3c(=O)c3ccccc32)cc(OC)c1OC | > 100000 nM | 816 nM | 2730 nM
CCOC(=O)C1=C(C)NC(=Cc2cc(C)n(-c3cccc(Br)c3)c2C)C1=O | > 100000 nM | 805 nM | 2880 nM
CCCCN(CC)CCNC(=O)c1cc2c(-c3ccc(Cl)cc3)nn(C)c2s1 | 39800 nM | 320 nM | 89.8 nM
O=C(c1ccc(F)cc1Cl)N1CCN(c2nc(-c3cccs3)ns2)CC1 | > 10000 nM | 78.9 nM | 351 nM
OC(CN1CCN(CC=Cc2ccccc2)CC1)Cn1c2ccc(Br)cc2c2cc(Br)ccc21 (stereo not given) | > 54100 nM | 426 nM | 1960 nM
COc1cc2nc(NCc3ccccc3)n3nc(-c4cccnc4)nc3c2cc1OC | > 100000 nM | 810 nM | > 12500 nM
COC(=O)[C@@H]1C[C@H](NC(=O)c2ccc(OC)cc2OC)CN1Cc1cccc2ccccc12 | > 10000 nM | > 80.9 nM | > 1250 nM
O=C(NNC(=O)c1csnn1)c1ccc(C(F)(F)F)cc1 | > 100000 nM | 792 nM | 641 nM
CC(=O)c1ccc2c3c(onc13)-c1ccccc1C2=O | > 100000 nM | 791 nM | 2250 nM
COc1ccc2cc(C)c3nnc(SCC(=O)N4CCN(C(=O)c5ccco5)CC4)n3c2c1 | > 100000 nM | 796 nM | 1130 nM
CCN(CC)CCCN(Cc1cc2ccc(C)cc2[nH]c1=O)C(=S)Nc1cccc(Cl)c1 | 22100 nM | 176 nM | 700 nM
CCOC(=O)CCC(=O)Oc1ccccc1-c1nc2cc(C)ccn2c1NC(C)(C)CC(C)(C)C | > 10000 nM | 79.5 nM | 658 nM
CC(C)NCC(O)Cn1c2ccc(Cl)cc2c2cc(Cl)ccc21 (stereo not given) | 4870 nM | 38.9 nM | 183 nM
Cc1cc(Nc2ccc(C)c(C)c2)n2cnnc2n1 | > 73900 nM | 590 nM | 242 nM
CCOC(=O)C1CCCN(C(=O)c2c(C)oc3c2C(=O)c2ccccc2C3=O)C1 (stereo not given) | 20400 nM | 163 nM | 171 nM
O=c1c([N+](=O)[O-])cccn1Cc1ccc(F)cc1Cl | > 100000 nM | 783 nM | 358 nM

SMILES | CC50 [1] | EC50 [2] | EC50 [3]
CCCCCCC(=O)Oc1ccccc1-c1nc2ccccn2c1NC(C)(C)CC(C)(C)C | > 10000 nM | 78.3 nM | 1060 nM
COc1cccc(-c2cncc(-c3cncc(OC)c3)n2)c1 | > 100000 nM | 803 nM | 701 nM
CCCCCCC(=O)Oc1ccccc1-c1nc2cc(C)ccn2c1NC(C)(C)CC(C)(C)C | > 10000 nM | 80.3 nM | 636 nM
O=C(NC1CCN(CC(O)CN(Cc2ccccc2)S(=O)(=O)c2ccccc2)C1)c1ccccc1 (stereo not given) | > 7270 nM | 56.9 nM | 81.9 nM
CCNc1nc(NC(C)(C)C)nc(N2CCCC2)n1 | > 100000 nM | 802 nM | 1450 nM
COc1ccc(-n2c(CNc3cc(C(F)(F)F)ccc3Cl)nnc2SCc2ccccc2Cl)cc1 | > 100000 nM | 801 nM | 728 nM
O=C(Nc1cccc(-c2nc3ccccc3[nH]2)c1)c1cc(=O)c2ccccc2o1 | > 100000 nM | 786 nM | 397 nM
CC(=O)N(C1=C(N(C)C)C(=O)c2ccccc2C1=O)c1cccc(F)c1 | 1360 nM | 10.6 nM | 13.5 nM
COc1nncc(-c2cnnc(SC)n2)n1 | 28400 nM | 219 nM | 237 nM
Cc1ccc(NC(=O)ON=C2CCCC2)cc1 | 45700 nM | 362 nM | 408 nM
CCOC(=O)c1cnc2c(Cl)cccc2c1Nc1cccc(C(C)=O)c1 | > 100000 nM | 784 nM | 785 nM
COc1ccc(O)c(C=NNc2nc3ccccc3[nH]2)c1 | 43900 nM | 355 nM | 576 nM
CCc1ccc(-n2nnc(C(=O)Nc3ccccc3Cl)c2C)cc1 | > 10000 nM | 77.5 nM | > 1680 nM
COc1ccc2c(c1)CC1c3c(cc4c(c3-2)OCO4)CCN1C (stereo not given) | 15600 nM | 121 nM | 38.5 nM
CCOC(=O)C1=C(C)N=c2sc(=Cc3cc(Br)ccc3O)c(=O)n2C1c1ccc(OC)c(OC)c1 (stereo not given) | > 100000 nM | 814 nM | 2100 nM
COc1ccccc1-n1c(C(C)N2CCN(C(=O)c3cc([N+](=O)[O-])cc([N+](=O)[O-])c3)C(C)C2)nc2ccccc2c1=O (stereo not given) | > 10000 nM | 79.6 nM | > 603 nM
O=C1NN(c2ccc(Br)cc2)C(=O)C1=Cc1c(O)ccc2ccccc12 | > 100000 nM | 818 nM | 4880 nM
COc1ccc(OC)c(NC(=O)COc2cc3ccccc3cc2C(=O)Nc2cc(OC)c(Cl)cc2OC)c1 | > 100000 nM | 782 nM | 1150 nM
COC(=O)[C@@H]1C[C@H](NC(=O)c2[nH]c3ccc(Cl)cc3c2-c2ccccc2)CN1Cc1cc(OC)cc(OC)c1 | > 100000 nM | 786 nM | > 11500 nM
COc1ccc(C2N(Cc3ccccc3)c3ccccc3N2Cc2ccccc2)cc1 | 53000 nM | 431 nM | 561 nM
Cc1ccc(NC2=C(c3ccc(C(F)(F)F)cc3)C(=O)c3ccccc32)cc1F | > 100000 nM | 790 nM | 541 nM
CCn1c(SCc2ccc([N+](=O)[O-])cc2)nc2sc3c(c2c1=O)CCN(C)C3 | > 100000 nM | 808 nM | 470 nM
Cc1ccc2ccc(C(Nc3ccccn3)c3ccc(Br)cc3)c(O)c2n1 (stereo not given) | > 100000 nM | 800 nM | 1220 nM
Cc1c2cnn(CC(=O)O)c(=O)c2c(C)n1Cc1cccc(Cl)c1 | > 100000 nM | 789 nM | > 12500 nM
N=c1c2c(n(Cc3ccccc3)c3c1CCC3)CCC2 | 41200 nM | 329 nM | 280 nM
Clc1nc(Nc2ccccc2)nc(N2CCCCC2)n1 | 48300 nM | 381 nM | > 12500 nM
Cc1ccc(C=NNc2ncnc3nc[nH]c23)cc1 | > 100000 nM | 804 nM | 697 nM
